From patent EP1602719B1, “Control of transglutaminase catalyzed protein modification by selective irreversible transglutaminase inhibitors” (N-Zyme BioTec GmbH, priority 2004, dated 2005)
Peptide text beside a SMILES is read from it. * marks the point of attachment. Cbz = O=C(OCc1ccccc1)*; Acryloyl = C=CC(=O)*

Biological target: T1, Meerschweinchenlebertransglutaminase (Cavia cutleri, UniProt P08587)
T1 sequence (P08587 1-690): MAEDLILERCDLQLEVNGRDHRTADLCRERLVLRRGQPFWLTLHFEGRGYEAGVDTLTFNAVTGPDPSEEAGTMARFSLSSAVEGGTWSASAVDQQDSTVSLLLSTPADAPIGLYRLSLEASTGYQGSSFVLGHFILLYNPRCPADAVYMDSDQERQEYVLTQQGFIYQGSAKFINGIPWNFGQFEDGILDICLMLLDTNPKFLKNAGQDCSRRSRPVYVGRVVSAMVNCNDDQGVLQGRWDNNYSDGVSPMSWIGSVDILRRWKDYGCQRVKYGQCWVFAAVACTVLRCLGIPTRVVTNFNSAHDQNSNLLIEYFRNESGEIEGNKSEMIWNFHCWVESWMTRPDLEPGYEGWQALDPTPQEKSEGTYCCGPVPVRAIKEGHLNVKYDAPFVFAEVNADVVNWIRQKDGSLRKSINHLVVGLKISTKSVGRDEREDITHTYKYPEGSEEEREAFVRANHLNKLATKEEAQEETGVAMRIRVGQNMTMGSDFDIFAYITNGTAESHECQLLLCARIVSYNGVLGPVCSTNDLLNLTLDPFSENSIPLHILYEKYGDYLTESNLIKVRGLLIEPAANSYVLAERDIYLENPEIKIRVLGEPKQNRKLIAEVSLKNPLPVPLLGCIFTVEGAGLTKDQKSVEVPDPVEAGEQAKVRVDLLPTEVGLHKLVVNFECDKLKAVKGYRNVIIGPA
Assay: Transglutaminase-catalysed labelling of recombinant hLeptin with Z-Gln-Gly-CAD-DNS, reaction stopped by inhibitor, RP-HPLC (Beispiel 7)
Assay type: biochemical, Meerschweinchen
Conditions: inhibitor 0,5 mM
Procedure: Alle nachfolgend beschriebenen Experimente wurden nach dem gleichen Standardprotokoll durchgeführt. Dabei werden das jeweilige Zielprotein und das farbstofftragende amin- oder glutaminhaltige Substrat in einem geeigneten Puffer vorgelegt und für 5 Min. auf 37°C temperiert. Anschließend wird durch Zugabe von Transglutaminase die Reaktion gestartet. Nach variierenden Inkubationszeiten, durch die jeweils verschiedene Markierungsgrade erreicht werden, wird durch Zugabe eines Inhibitors die Transglutaminase vollständig und irreversibel inaktiviert (Reaktionsabbruch 1). In Kontrollexperimenten wird die Markierungsreaktion durch Abtrennung des ungebundenen, farbstofftragenden Substrates unterbrochen (Reaktionsabbruch 2). Die Abtrennung des ungebundenen Farbstoffes erfolgt unter Normaldruck über eine PD-10-Säule (Amersham Biosciences). Dieses allgemein einsetzbare Verfahren zur schnellen Abtrennung kleiner Moleküle von Makromolekülen wie Proteinen basiert auf dem Prinzip der Gelpermeationschromatographie und kann als das vorteilhafteste Verfahren zur Reaktionskontrolle nach dem Stand der Technik angesehen werden. Andere Verfahren, mit denen die weitere katalytische Markierungsreaktion abgebrochen werden könnte, sind weniger geeignet oder nicht allgemein einsetzbar (z. B. thermische, unspezifische chemische oder affinitätschromatographische Methoden). Die Gelpermeationschromatographie wurde jeweils so schnell wie technisch machbar durchgeführt. Dazu wird auf die vorkonditionierte PD-10-Säule 2,5 ml des Reaktionsvolumens aufgetragen und die Lösung vollständig in das Trennmaterial eingebracht. Anschließend wird das Protein mit 3,5 ml Puffer eluiert. Die niedermolekularen Substanzen verbleiben auf der Säule. Der Gesamtprozess benötigt eine Zeitspanne von mindestens 3 Minuten. Während dieser Zeit kann Transglutaminase weiter auf das Zielprotein einwirken. […]

C=CC(=O)NCCCC[C@H](NC(=O)OCc1ccccc1)C(=O)NCC(=O)O [Z-Lys(Acryloylamid)-Gly-OH, N^α-Benzyloxycarbonyl-L-lysinyl(ε-acryloyl)glycin] (Cbz-Lys(Acryloyl)-Gly-OH)
Inaktivierung der Meerschweinchenlebertransglutaminase (added after 5 Min., GpTGase 0,25 U/ml, pH 8): vollständig
weitere Labeling- und Quervernetzungsreaktionen (stopped reaction mixture kept at RT for 30 and 60 Min.): keine weitere Labeling- und Quervernetzungsreaktionen
weitere enzymatische Reaktionen nach Lagerung (stored 10 days at -20°C, then one hour at RT): keine weiteren enzymatischen Reaktionen mehr
